Data taken from PubChem BioAssay AID220 (DTP/NCI, 2004).
Values joined by “and” are separate entries in the source; they are usually repeats but may differ in a detail not shown here. Identical values can stand only once. Inconclusive results are not listed.

Tested on: CD8F1 mice, subcutaneous mammary adenocarcinoma, T/C%
Test: NCI In Vivo Anticancer Drug Screen. Data for tumor model Mammary Adenocarcinoma CD8F1 (subcutaneous) in CD8F1
Conditions: higher = larger tumour
Outline: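 Transplantable tumors were established in mice, animals were dosed with compound or vehicle, and survival or tumor size was then measured in both groups. The treated result was divided by the control result.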

[1] = endpoint: median tumor weight change, dose: 125.0 mg/kg/injection, schedule: Q01DX001 (ip), vehicle: saline
[2] = endpoint: median tumor weight change, dose: 250.0 mg/kg/injection, schedule: Q01DX001 (ip), vehicle: saline

BrCCC1(CCBr)CCCCC1
T/C (endpoint: median tumor weight change, dose: 125.0 mg/kg/injection, schedule: Q01DX001 (ip), vehicle: other): 80 % of control
T/C (endpoint: median tumor weight change, dose: 250.0 mg/kg/injection, schedule: Q01DX001 (ip), vehicle: other): 79 % of control
T/C (endpoint: median tumor weight change, dose: 500.0 mg/kg/injection, schedule: Q01DX001 (ip), vehicle: other): 83 % of control
T/C (endpoint: median tumor weight change, dose: 1000.0 mg/kg/injection, schedule: Q01DX001 (ip), vehicle: other): 109 % of control
T/C (endpoint: median tumor weight change, dose: 2000.0 mg/kg/injection, schedule: Q01DX001 (ip), vehicle: other): 119 % of control

COc1cc2c(c(OC)c1OC)-c1ccc(OC)c(=O)cc1[C@@H](NC(=O)CCl)CC2
T/C (endpoint: median tumor weight change, dose: 5.0 mg/kg/injection, schedule: Q01DX001 (ip), vehicle: saline with Tween-80): 76 % of control

CCN(CC)CCCNc1nccc2c(C)c3[nH]c4ccncc4c3cc12
T/C (endpoint: median tumor weight change, dose: 25.0 mg/kg/injection, schedule: Q01DX001 (ip), vehicle: other): 29 % of control and 32 % of control

C=C(C(=O)O)C(N)C(=O)O (centres undefined)
T/C (endpoint: median tumor weight change, dose: 62.5 mg/kg/injection, schedule: Q01DX001 (ip), vehicle: saline): 96 % of control
T/C [1]: 100 % of control
T/C [2]: 61 % of control
T/C (endpoint: median tumor weight change, dose: 500.0 mg/kg/injection, schedule: Q01DX001 (ip), vehicle: saline): 71 % of control

COc1cccc2c1C(=O)c1c(O)c3c(c(O)c1C2=O)C[C@@](O)(C(=O)CO)C[C@@H]3OC1CC(OC(C)=O)C(OC(C)=O)C(C)O1 (some centres undefined)
T/C (endpoint: median tumor weight (est.), dose: 3.12 mg/kg/injection, schedule: Q07DX005 (ip), vehicle: distilled water + Tween-80): 65 % of control
T/C (endpoint: median tumor weight (est.), dose: 6.25 mg/kg/injection, schedule: Q07DX005 (ip), vehicle: distilled water + Tween-80): 58 % of control
T/C (endpoint: median tumor weight (est.), dose: 12.5 mg/kg/injection, schedule: Q07DX005 (ip), vehicle: distilled water + Tween-80): 6 % of control
T/C (endpoint: median tumor weight (est.), dose: 25.0 mg/kg/injection, schedule: Q07DX005 (ip), vehicle: distilled water + Tween-80): 13 % of control

Cc1c(CNc2ccc(C(=O)NC(CC(=O)O)C(=O)O)cc2)ccc2nc(N)nc(N)c12 (centres undefined)
T/C (endpoint: median tumor weight (est.), dose: 3.12 mg/kg/injection, schedule: Q07DX005 (ip), vehicle: saline with Tween-80): 28 % of control
T/C (endpoint: median tumor weight (est.), dose: 3.13 mg/kg/injection, schedule: Q07DX005 (ip), vehicle: saline with Tween-80): 26 % of control
T/C (endpoint: median tumor weight (est.), dose: 6.25 mg/kg/injection, schedule: Q07DX005 (ip), vehicle: saline with Tween-80): 29 % of control

COc1cc2c[n+](C)c3c4cc5c(cc4ccc3c2cc1OC)OCO5
T/C (endpoint: median tumor weight (est.), dose: 10.0 mg/kg/injection, schedule: Q07DX005 (ip), vehicle: saline with Tween-80): 78 % of control
T/C (endpoint: median tumor weight (est.), dose: 40.0 mg/kg/injection, schedule: Q07DX005 (ip), vehicle: saline with Tween-80): 31 % of control
T/C (endpoint: median tumor weight (est.), dose: 80.0 mg/kg/injection, schedule: Q07DX005 (ip), vehicle: saline with Tween-80): 4 % of control

C=C(C)C(=O)OC1C/C(CO)=C\C(O)C/C(C)=C/C2OC(=O)C(=C)C21 (centres undefined)
T/C (endpoint: median tumor weight change, dose: 12.0 mg/kg/injection, schedule: Q01DX001 (ip), vehicle: saline + alcohol): 86 % of control
T/C (endpoint: median tumor weight change, dose: 25.0 mg/kg/injection, schedule: Q01DX001 (ip), vehicle: saline + alcohol): 49 % of control
T/C (endpoint: median tumor weight change, dose: 50.0 mg/kg/injection, schedule: Q01DX001 (ip), vehicle: saline + alcohol): 69 % of control
T/C (endpoint: median tumor weight change, dose: 100.0 mg/kg/injection, schedule: Q01DX001 (ip), vehicle: saline + alcohol): 60 % of control

CC(=O)O[C@@H]1CO[C@H]2O[C@H]3[C@@H](C(C=O)=C[C@H](O)[C@@H]4C5=C(C(C)C)CC[C@]5(C)CC[C@@]34C)[C@@]2(O)C1=O
T/C (endpoint: median tumor weight change, dose: 3.75 mg/kg/injection, schedule: Q01DX001 (ip), vehicle: Klucel (hydroxypropylcellulose) (HPC)): 36 % of control
T/C (endpoint: median tumor weight change, dose: 15.0 mg/kg/injection, schedule: Q01DX001 (ip), vehicle: Klucel (hydroxypropylcellulose) (HPC)): 63 % of control and 74 % of control

CNNCc1ccc(C(=O)NC(C)C)cc1
T/C (endpoint: median tumor weight (est.), dose: 16.0 mg/kg/injection, schedule: Q07DX005 (ip), vehicle: saline): 207 % of control and 101 % of control

Nc1ncnc2c1ncn2C1C=C(CO)C(O)C1O (centres undefined)
T/C (endpoint: median tumor weight change, dose: 2.5 mg/kg/injection, schedule: Q01DX001 (ip), vehicle: saline): 63 % of control
T/C (endpoint: median tumor weight change, dose: 2.5 mg/kg/injection, schedule: Q01DX001 (ip), vehicle: suspension in saline): 113 % of control
T/C (endpoint: median tumor weight change, dose: 5.0 mg/kg/injection, schedule: Q01DX001 (ip), vehicle: saline): 107 % of control
T/C (endpoint: median tumor weight change, dose: 5.0 mg/kg/injection, schedule: Q01DX001 (ip), vehicle: suspension in saline): 115 % of control
T/C (endpoint: median tumor weight change, dose: 10.0 mg/kg/injection, schedule: Q01DX001 (ip), vehicle: saline): 100 % of control
T/C (endpoint: median tumor weight change, dose: 20.0 mg/kg/injection, schedule: Q01DX001 (ip), vehicle: saline): 86 % of control
T/C (endpoint: median tumor weight change, dose: 20.0 mg/kg/injection, schedule: Q01DX001 (ip), vehicle: suspension in saline): 39 % of control
T/C (endpoint: median tumor weight change, dose: 40.0 mg/kg/injection, schedule: Q01DX001 (ip), vehicle: saline): 40 % of control

CC1=NN(c2cccc(S(=O)(=O)O)c2)C(=O)C1N=Nc1cc(Cl)cc(S(=O)(=O)O)c1O.CC1=NN(c2cccc(S(=O)(=O)O)c2)C(=O)C1N=Nc1cc(Cl)cc(S(=O)(=O)O)c1O.[Cr] (centres undefined)
T/C [1]: 245 % of control
T/C [2]: 184 % of control

[Cl][Mn][Cl]
T/C (endpoint: median tumor weight (est.), dose: 64.0 mg/kg/injection, schedule: Q07DX005 (ip), vehicle: saline): 111 % of control
T/C (endpoint: median tumor weight (est.), dose: 128.0 mg/kg/injection, schedule: Q07DX005 (ip), vehicle: saline): 66 % of control

O=C1C=CC(=O)N1c1ccc(Cl)cc1
T/C (endpoint: median tumor weight (est.), dose: 5.0 mg/kg/injection, schedule: Q07DX003 (ip), vehicle: Klucel (hydroxypropylcellulose) (HPC)): 65 % of control
T/C (endpoint: median tumor weight (est.), dose: 20.0 mg/kg/injection, schedule: Q07DX003 (ip), vehicle: Klucel (hydroxypropylcellulose) (HPC)): 109 % of control

c1cc[c]([Sn]([NH]c2ncnc3[nH]cnc23)([NH]c2ncnc3[nH]cnc23)[c]2ccccc2)cc1
T/C (endpoint: median tumor weight change, dose: 125.0 mg/kg/injection, schedule: Q01DX001 (ip), vehicle: suspension in saline): 101 % of control
T/C (endpoint: median tumor weight change, dose: 250.0 mg/kg/injection, schedule: Q01DX001 (ip), vehicle: suspension in saline): 61 % of control
T/C (endpoint: median tumor weight change, dose: 500.0 mg/kg/injection, schedule: Q01DX001 (ip), vehicle: suspension in saline): 41 % of control
T/C (endpoint: median tumor weight change, dose: 1000.0 mg/kg/injection, schedule: Q01DX001 (ip), vehicle: suspension in saline): 42 % of control

O=C1OC(C(O)CO)C(O)=C1O (centres undefined)
T/C (endpoint: median tumor weight (est.), dose: 100.0 mg/kg/injection, schedule: Q07DX005 (ip), vehicle: saline): 70 % of control
T/C (endpoint: median tumor weight (est.), dose: 200.0 mg/kg/injection, schedule: Q07DX005 (ip), vehicle: saline): 28 % of control
T/C (endpoint: median tumor weight (est.), dose: 400.0 mg/kg/injection, schedule: Q07DX005 (ip), vehicle: saline): 110 % of control
T/C (endpoint: median tumor weight (est.), dose: 800.0 mg/kg/injection, schedule: Q07DX005 (ip), vehicle: saline): 61 % of control

C[n+]1c(/C=C\C=C\N2CCCCC2)sc2ccccc21
T/C (endpoint: median tumor weight (est.), dose: 0.5 mg/kg/injection, schedule: Q07DX005 (ip), vehicle: Klucel (hydroxypropylcellulose) (HPC)): 114 % of control
T/C (endpoint: median tumor weight (est.), dose: 1.0 mg/kg/injection, schedule: Q07DX005 (ip), vehicle: Klucel (hydroxypropylcellulose) (HPC)): 108 % of control

CC[C@@]1(O)C[C@H](OC2CC(N(C)C)C(OC3CC(O)C(O[C@@H]4O[C@@H](C)C(=O)C=C4N)C(C)O3)C(C)O2)c2c(cc3c(c2O)C(=O)c2c(O)ccc(O)c2C3=O)[C@H]1C(=O)OC (some centres undefined)
T/C (endpoint: median tumor weight (est.), dose: 0.09 mg/kg/injection, schedule: Q07DX005 (ip), vehicle: suspension in saline): 180 % of control
T/C (endpoint: median tumor weight (est.), dose: 0.18 mg/kg/injection, schedule: Q07DX005 (ip), vehicle: suspension in saline): 168 % of control
T/C (endpoint: median tumor weight (est.), dose: 0.37 mg/kg/injection, schedule: Q07DX005 (ip), vehicle: suspension in saline): 240 % of control
T/C (endpoint: median tumor weight (est.), dose: 0.38 mg/kg/injection, schedule: Q07DX005 (ip), vehicle: suspension in saline): 37 % of control
T/C (endpoint: median tumor weight (est.), dose: 3.0 mg/kg/injection, schedule: Q07DX005 (ip), vehicle: suspension in saline): 50 % of control and 69 % of control
T/C (endpoint: median tumor weight (est.), dose: 1.0 micrograms/kg/injection, schedule: Q07DX005 (ip), vehicle: Klucel (hydroxypropylcellulose) (HPC)): 106 % of control
T/C (endpoint: median tumor weight (est.), dose: 4.0 micrograms/kg/injection, schedule: Q07DX005 (ip), vehicle: Klucel (hydroxypropylcellulose) (HPC)): 123 % of control

CC(=O)[C@]1(O)Cc2c(O)c3c(c(O)c2[C@@H](OC2CC(N)C(O)C(C)O2)C1)C(=O)c1c(O)cccc1C3=O (some centres undefined)
T/C (endpoint: median tumor weight (est.), dose: 0.6 mg/kg/injection, schedule: Q07DX005 (ip), vehicle: water): 96 % of control

Nc1nc(-c2ccccc2)c(Br)c(=O)[nH]1
T/C (endpoint: median tumor weight change, dose: 125.0 mg/kg/injection, schedule: Q01DX001 (ip), vehicle: saline with Tween-80): 115 % of control
T/C (endpoint: median tumor weight change, dose: 250.0 mg/kg/injection, schedule: Q01DX001 (ip), vehicle: saline with Tween-80): 96 % of control
T/C (endpoint: median tumor weight change, dose: 500.0 mg/kg/injection, schedule: Q01DX001 (ip), vehicle: saline with Tween-80): 93 % of control
T/C (endpoint: median tumor weight change, dose: 1000.0 mg/kg/injection, schedule: Q01DX001 (ip), vehicle: saline with Tween-80): 98 % of control
